Seven compounds from ChEMBL document CHEMBL5465560, “Selectivity Literature for EUbOPEN Chemogenomic Library” (2024) can be followed below.

In experiment [1] the target is T1, Mitogen-activated protein kinase kinase kinase 3 (Homo sapiens) (UniProt Q99759).
T1 sequence (whole entry): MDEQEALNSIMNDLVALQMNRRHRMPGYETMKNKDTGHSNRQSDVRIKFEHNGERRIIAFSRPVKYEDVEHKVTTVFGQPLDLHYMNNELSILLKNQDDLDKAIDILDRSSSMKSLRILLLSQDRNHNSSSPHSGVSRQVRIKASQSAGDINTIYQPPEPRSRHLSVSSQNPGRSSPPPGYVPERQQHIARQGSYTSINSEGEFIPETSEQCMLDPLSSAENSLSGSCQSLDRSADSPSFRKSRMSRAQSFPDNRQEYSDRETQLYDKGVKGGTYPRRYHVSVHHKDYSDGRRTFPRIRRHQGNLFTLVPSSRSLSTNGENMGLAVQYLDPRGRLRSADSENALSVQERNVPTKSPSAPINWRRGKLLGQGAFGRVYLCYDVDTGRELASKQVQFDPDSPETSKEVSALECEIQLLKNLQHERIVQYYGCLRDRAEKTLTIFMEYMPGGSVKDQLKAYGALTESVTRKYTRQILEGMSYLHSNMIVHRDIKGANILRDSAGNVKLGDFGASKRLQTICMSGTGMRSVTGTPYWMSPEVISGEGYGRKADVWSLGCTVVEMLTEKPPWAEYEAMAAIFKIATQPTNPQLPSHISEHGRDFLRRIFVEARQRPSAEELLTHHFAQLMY
Description: Selectivity interaction (ProQinase) EUB0000171b MAP3K3.

Experiment [2] addresses T2, Mitogen-activated protein kinase kinase kinase kinase 2 (Homo sapiens) (UniProt Q12851).
T2 sequence (whole entry): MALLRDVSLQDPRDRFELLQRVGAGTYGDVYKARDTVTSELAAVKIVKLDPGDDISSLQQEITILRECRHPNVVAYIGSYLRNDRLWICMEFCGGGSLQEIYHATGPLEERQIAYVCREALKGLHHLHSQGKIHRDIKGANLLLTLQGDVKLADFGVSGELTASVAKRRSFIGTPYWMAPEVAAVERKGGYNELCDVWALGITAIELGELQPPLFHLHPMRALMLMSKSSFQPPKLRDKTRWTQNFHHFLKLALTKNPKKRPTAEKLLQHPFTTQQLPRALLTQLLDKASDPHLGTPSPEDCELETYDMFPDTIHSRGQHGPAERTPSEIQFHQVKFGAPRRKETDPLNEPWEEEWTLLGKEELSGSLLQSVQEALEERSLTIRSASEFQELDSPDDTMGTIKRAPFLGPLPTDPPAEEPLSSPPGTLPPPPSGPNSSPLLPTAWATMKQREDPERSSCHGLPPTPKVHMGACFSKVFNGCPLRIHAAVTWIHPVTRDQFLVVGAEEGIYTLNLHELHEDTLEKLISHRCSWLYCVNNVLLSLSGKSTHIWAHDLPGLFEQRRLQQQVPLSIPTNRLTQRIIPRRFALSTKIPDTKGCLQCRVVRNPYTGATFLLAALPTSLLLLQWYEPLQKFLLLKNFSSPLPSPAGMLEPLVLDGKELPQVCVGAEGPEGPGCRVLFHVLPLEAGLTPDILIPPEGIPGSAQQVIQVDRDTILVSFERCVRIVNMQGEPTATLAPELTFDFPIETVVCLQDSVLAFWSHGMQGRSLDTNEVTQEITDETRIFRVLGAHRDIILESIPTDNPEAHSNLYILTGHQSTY
The experiment in a line: Selectivity interaction (ProQinase) EUB0000171b MAP4K2.

Experiment [3] has as its target Vascular endothelial growth factor receptor 3 (Homo sapiens, UniProt P35916). Description: Selectivity interaction (KinomeScan (DiscoverX)) EUB0000699a FLT4. The settings on record: at 10 µM.
Experiment [4] concerns the target Serine/threonine-protein kinase SIK2 (Homo sapiens) (UniProt Q9H0K1). As to conditions: at 10 µM.
Experiment [5] deals with Serine/threonine-protein kinase MARK1 (Homo sapiens) (UniProt Q9P0L2). The experiment in a line: Selectivity interaction (KinomeScan (DiscoverX)) EUB0001079a MARK1. As to conditions: at 1 µM.
The test system of experiment [6] is Receptor-type tyrosine-protein kinase FLT3 (Homo sapiens), P36888 [UNDEFINED MUTATION]. Description: Selectivity interaction (KinomeScan (DiscoverX)) EUB0001079a FLT3. As to conditions: at 1 µM.
Experiment [7] deals with Serine/threonine-protein kinase 38 (Homo sapiens) (UniProt Q15208). Description: Selectivity interaction (KinomeScan (DiscoverX)) EUB0000655a STK38. The settings on record: at 10 µM.
The target of experiment [8] is T3, Serine/threonine-protein kinase D2 (Homo sapiens) (UniProt Q9BZL6).
T3 sequence (whole entry): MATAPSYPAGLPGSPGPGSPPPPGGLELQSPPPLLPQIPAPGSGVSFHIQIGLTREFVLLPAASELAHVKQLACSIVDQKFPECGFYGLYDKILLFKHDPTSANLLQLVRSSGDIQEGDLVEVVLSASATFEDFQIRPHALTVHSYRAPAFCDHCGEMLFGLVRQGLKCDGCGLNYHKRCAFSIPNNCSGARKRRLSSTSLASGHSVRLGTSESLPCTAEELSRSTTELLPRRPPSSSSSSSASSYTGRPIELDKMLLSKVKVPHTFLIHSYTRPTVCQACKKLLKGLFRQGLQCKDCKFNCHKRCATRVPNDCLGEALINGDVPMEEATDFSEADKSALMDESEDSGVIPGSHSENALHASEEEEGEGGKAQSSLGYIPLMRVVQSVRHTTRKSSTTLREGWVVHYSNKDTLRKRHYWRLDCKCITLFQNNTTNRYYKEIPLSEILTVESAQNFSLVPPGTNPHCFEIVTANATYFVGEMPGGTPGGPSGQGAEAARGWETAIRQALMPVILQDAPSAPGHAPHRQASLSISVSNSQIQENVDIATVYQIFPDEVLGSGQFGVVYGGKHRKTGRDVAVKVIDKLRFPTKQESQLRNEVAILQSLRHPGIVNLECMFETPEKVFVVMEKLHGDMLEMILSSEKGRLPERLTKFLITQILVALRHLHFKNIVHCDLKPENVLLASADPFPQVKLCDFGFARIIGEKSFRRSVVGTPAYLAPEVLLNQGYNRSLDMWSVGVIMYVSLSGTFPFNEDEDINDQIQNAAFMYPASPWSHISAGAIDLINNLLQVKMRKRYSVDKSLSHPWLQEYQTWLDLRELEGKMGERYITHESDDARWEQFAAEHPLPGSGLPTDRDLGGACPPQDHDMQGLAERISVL
The experiment in a line: Selectivity interaction (Kinase screening (Nanosyn)) EUB0000604a PRKD2.

The target in experiment [9] is Receptor tyrosine-protein kinase erbB-2 (Homo sapiens, UniProt P04626). The settings on record: at 10 µM.
Experiment [10] concerns the target Aurora kinase B (Homo sapiens, UniProt Q96GD4). The experiment in a line: Selectivity interaction (Kinase panel (KiNativ target engagement assay in Jurkat cells)) EUB0001635a AURKB. Type of experiment: cell-based. The settings on record: Selectivity number of off-targets 0.0, Selectivity number of targets 233.0, Source Knowledge https://www.sciencedirect.com/science/article/pii/S2451945619300674?via%3Dihub, at 1 µM.

Chain of Serine/threonine-protein kinase 38 (Homo sapiens) (Q15208 2-465 limits assumed): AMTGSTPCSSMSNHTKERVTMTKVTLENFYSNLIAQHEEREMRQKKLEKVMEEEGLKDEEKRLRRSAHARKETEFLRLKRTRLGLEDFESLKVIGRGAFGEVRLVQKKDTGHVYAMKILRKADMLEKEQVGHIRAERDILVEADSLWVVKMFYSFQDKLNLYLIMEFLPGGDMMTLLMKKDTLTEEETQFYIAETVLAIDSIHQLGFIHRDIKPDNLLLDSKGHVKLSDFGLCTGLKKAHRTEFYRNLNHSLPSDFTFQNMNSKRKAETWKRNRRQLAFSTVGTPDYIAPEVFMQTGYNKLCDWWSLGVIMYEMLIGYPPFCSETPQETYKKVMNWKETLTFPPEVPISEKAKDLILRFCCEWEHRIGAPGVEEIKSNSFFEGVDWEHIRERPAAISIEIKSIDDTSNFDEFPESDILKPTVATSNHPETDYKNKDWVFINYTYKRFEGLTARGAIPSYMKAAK
Chain of Receptor tyrosine-protein kinase erbB-2 (P04626 whole entry): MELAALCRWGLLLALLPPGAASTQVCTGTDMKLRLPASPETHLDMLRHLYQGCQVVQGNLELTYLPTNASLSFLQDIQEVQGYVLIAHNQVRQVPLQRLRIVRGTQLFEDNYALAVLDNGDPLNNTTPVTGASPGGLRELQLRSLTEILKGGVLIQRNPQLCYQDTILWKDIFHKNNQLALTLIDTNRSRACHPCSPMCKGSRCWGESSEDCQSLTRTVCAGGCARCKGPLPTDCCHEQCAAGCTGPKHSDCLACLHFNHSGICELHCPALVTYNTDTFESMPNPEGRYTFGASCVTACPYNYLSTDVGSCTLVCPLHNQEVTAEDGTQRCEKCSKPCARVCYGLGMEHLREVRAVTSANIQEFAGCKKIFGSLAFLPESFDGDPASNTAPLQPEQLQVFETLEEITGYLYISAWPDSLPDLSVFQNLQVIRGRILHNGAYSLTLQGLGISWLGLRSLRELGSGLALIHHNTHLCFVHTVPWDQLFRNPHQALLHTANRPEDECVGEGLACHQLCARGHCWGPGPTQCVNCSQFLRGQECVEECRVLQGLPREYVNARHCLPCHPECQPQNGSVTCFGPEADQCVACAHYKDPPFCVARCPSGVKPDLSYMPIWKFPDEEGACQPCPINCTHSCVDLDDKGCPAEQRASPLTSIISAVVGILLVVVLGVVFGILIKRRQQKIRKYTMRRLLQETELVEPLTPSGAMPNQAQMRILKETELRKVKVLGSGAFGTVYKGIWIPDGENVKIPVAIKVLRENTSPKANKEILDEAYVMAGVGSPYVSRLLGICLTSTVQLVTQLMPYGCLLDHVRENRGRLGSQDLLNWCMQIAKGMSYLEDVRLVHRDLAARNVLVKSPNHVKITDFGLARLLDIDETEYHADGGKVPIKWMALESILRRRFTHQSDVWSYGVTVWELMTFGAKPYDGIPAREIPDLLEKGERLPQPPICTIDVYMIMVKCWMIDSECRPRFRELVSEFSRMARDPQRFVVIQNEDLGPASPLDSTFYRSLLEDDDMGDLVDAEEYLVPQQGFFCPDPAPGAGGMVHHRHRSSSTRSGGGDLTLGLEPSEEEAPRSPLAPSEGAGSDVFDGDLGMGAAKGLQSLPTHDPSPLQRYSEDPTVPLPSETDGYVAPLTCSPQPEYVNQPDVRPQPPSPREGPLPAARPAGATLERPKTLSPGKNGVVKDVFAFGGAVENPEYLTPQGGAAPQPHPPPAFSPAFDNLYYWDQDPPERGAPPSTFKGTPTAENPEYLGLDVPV
Chain of Serine/threonine-protein kinase MARK1 (Homo sapiens) (Q9P0L2 whole entry, looked up): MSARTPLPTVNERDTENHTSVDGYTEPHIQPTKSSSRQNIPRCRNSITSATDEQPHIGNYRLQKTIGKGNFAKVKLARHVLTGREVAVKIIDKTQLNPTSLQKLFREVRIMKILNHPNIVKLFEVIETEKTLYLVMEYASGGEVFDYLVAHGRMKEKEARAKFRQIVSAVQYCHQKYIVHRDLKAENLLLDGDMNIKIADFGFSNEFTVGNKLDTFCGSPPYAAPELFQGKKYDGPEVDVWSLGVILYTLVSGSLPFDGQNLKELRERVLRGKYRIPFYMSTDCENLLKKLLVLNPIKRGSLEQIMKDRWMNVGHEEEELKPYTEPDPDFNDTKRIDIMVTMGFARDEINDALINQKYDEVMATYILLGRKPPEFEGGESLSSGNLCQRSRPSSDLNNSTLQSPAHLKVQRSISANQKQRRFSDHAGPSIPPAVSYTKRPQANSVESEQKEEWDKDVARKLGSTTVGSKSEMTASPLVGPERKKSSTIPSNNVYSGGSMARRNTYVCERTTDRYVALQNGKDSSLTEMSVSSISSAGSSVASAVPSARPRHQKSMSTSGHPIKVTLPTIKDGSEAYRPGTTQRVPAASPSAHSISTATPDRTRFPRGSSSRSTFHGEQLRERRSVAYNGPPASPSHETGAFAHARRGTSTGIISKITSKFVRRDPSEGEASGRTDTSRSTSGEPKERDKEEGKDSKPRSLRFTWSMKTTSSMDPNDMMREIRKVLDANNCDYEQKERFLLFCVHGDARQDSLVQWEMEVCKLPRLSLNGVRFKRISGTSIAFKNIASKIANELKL
Chain of Aurora kinase B (Q96GD4 whole entry): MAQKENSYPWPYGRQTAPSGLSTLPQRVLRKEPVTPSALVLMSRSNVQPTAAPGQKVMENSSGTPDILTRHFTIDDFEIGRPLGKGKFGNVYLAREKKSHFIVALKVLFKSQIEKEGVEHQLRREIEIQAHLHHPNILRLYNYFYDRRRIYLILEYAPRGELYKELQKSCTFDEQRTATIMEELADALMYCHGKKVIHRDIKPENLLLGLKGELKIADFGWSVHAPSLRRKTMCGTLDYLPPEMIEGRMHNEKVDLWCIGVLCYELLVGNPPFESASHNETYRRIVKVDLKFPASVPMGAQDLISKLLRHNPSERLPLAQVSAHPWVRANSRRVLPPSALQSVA
Chain of Vascular endothelial growth factor receptor 3 (P35916 whole entry): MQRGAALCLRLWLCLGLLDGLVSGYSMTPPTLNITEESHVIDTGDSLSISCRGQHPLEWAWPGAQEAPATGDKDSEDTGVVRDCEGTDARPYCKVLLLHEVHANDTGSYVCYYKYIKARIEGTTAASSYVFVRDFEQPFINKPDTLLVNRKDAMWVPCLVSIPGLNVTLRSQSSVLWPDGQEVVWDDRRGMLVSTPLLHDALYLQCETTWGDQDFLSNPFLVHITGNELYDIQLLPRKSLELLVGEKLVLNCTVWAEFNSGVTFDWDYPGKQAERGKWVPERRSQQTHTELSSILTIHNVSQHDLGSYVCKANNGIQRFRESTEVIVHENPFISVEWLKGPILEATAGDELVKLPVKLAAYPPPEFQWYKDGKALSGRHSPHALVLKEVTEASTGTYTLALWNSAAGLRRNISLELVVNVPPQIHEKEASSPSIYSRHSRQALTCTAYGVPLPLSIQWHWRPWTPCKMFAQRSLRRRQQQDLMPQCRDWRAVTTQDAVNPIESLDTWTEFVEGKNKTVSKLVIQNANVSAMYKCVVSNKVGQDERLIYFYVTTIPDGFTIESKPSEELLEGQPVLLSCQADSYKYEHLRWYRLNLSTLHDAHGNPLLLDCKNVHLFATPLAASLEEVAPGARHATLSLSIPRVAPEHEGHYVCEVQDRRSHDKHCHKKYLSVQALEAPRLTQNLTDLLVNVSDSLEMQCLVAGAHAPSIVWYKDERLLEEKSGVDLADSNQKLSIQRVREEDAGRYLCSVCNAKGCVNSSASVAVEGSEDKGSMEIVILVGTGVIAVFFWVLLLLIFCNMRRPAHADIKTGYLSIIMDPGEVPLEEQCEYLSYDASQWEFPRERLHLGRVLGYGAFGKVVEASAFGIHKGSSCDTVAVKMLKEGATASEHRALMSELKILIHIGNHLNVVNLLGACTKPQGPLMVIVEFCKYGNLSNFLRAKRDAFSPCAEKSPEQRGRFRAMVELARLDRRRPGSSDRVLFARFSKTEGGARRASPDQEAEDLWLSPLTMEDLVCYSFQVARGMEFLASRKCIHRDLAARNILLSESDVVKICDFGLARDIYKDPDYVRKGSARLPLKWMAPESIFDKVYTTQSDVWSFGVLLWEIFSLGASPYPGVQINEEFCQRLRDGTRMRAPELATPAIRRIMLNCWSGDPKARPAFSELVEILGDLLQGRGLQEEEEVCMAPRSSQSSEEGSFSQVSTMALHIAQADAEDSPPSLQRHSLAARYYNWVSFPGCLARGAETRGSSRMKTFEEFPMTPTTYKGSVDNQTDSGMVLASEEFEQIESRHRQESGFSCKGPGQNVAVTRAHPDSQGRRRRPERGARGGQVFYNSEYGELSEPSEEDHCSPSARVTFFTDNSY

Regarding `C=CC(=O)Nc1cccc(C(=O)Nc2ccc(Nc3cc(-c4[nH]c(SC)nc4C)ccn3)cc2)c1`, the % of control in experiment [1] (at 1 µM) worked out at 102%; in experiment [1] (at 5 µM) it was 103%; in [2] (at 1 µM) it was 89%; in [2] (at 5 µM) it was 50%.
For `CCN(CC)CCCCNc1ncc2cc(-c3cc(OC)cc(OC)c3)c(NC(=O)NC(C)(C)C)nc2n1`, the % of control in experiment [3] worked out at 6%; in [4], 100%.
With `Nc1cnc(N2CCc3cc(S(=O)(=O)Nc4c(F)cc(Cl)cc4F)cc(N4CCCC4=O)c32)nc1` [TP-020n], the figures for the % of control in experiment [5] and in experiment [6] were 76% and 96%, respectively.
`CN(C)CCOc1ccc(-c2nc(-c3ccncc3)c(-c3ccc4c(c3)CC/C4=N\O)[nH]2)cc1` displayed a % of control in [7] of 90%.
With `Cc1cnc(Nc2ccc(F)cc2Cl)nc1-c1c[nH]c(C(=O)N[C@H](CO)c2cccc(Cl)c2)c1`, the % of inhibition in experiment [8] came to 50%.
Compound `COCC(=O)NC/C=C/c1ccc2ncnc(Nc3ccc(Oc4ccc(C)nc4)c(C)c3)c2c1` [CP-724714] returned a % of control in experiment [9] of 0%.
For the compound `C=CC(=O)Nc1ccc(C(=O)Nc2[nH]nc3c2CN(C(=O)N[C@H](CN(C)C)c2ccccc2)C3(C)C)cc1`, the % of engagement in experiment [10] was 23%.
